Measured values: patent US10800789B2, “Antiviral compounds” (Gilead Pharmasset LLC, priority 2012, dated 2020)
Where two headings read alike, the source gives them in different places.

Tests used:
[1] = test system: stable HCV 1b RLuc replicon cells (dicistronic genotype 1b Con1 replicon); assay: Renilla luciferase HCV replicon reporter assay, genotype 1b; format: cell-based; conditions: Hepatitis C virus, 72 h, stable 1b Con1 RLuc replicon cells, 72 hours; read-out: 1b
Outline: (§1)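 Antiviral EC50 was determined in HCV replicon cells (stable RLuc lines for 1a H77, 1b Con1, 2a JFH-1 with NS5A L31; J6 NS5A chimera with M31) treated 72 h with compound. Renilla luciferase was then quantified.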

[2] = test system: stable HCV 1a RLuc replicon cells (dicistronic genotype 1a H77 replicon); assay: Renilla luciferase HCV replicon reporter assay, genotype 1a; format: cell-based; conditions: Hepatitis C virus, 72 h, stable 1a H77 RLuc replicon cells
Outline: as §1

[3] = test system: Q30R in genotype 1a NS5A (1a Pi-Rluc replicon, Huh-7-derived cured-51 cells); assay: Replicon assay against resistance mutant 1a Q30R; format: cell-based, HCV; conditions: Hepatitis C virus
Description: Antiviral potency (EC50) was determined using a Renilla luciferase (RLuc)-based HCV replicon reporter assay. To perform the assay for genotype 1 and 2a JFH-1, stable HCV 1a RLuc replicon cells (harboring a dicistronic genotype 1a H77 replicon that encodes a RLuc reporter), stable HCV 1b RLuc replicon cells (harboring a dicistronic genotype 1b Con1 replicon that encodes a RLuc reporter), or stable HCV 2a JFH-1 Rluc replicon cells (harboring a dicistronic genotype 2a JFH-1 replicon that encodes a RLuc reporter; with L31 present in NS5A) were dispensed into 384-well plates for EC50 assays. To perform the assay for genotype 2a (with M31 present in NS5A) or 2b, NS5A chimeric genotype 2a JFH-1 replicons that encodes a RLuc-Neo reporter and either genotype 2a J6 strain NS5A gene or genotype 2b MD2b-1 strain NS5A gene (both with M31 present) respectively, were either transiently transfected (t) into Huh-Lunet cells or were established as stably replicating replicon cells (s) is provided. Either cells were dispensed into 384-well plates for EC50 assays. To perform the assay for genotype 3 and 4, NS5A chimeric genotype 1b Con1 replicons that encodes a Pi-RLuc reporter and either genotype 3a S52 strain NS5A gene or genotype 4a ED43 strain NS5A gene respectively, were transiently transfected (t) into Huh-Lunet cells, which were subsequently dispensed into 384-well plates. Compounds were dissolved in DMSO at a concentration of 10 mM and diluted in DMSO either manually or using an automated pipeting instrument. Serially 3-fold diluted compounds were either manually mixed with cell culture media and added to the seeded cells or directly added to the cells using an automated instrument. DMSO was used as a negative (solvent; no inhibition) control, and the protease inhibitor ITMN-191 was included at a concentration>100×EC50 as a positive control. 72 hours later, cells were lysed and Renilla luciferase activity quantified as recommended by the manufacturer (Promega-Madison, Wis.). Non-linear regression was performed to calculate EC50 values.
To determine the antiviral potency (EC50) against resistance mutants, resistance mutations, including M28T, Q30R, Q30H, Q30E, L31M, Y93C, Y93H, and Y93N in genotype 1a NS5A, Y93H and L31V/Y93H in genotype 1b NS5A, and Y93H for in genotype 3a NS5A, were introduced individually into either 1a Pi-Rluc or 1b Pi-Rluc replicons by site directed mutagenesis. Replicon RNA of each resistant mutant was transiently transfected into Huh-7-derived cured-51 cells and antiviral potency was determined on these transfected cells as described above.

[4] = test system: stable HCV 2a JFH-1 Rluc replicon cells (L31 present in NS5A); assay: Renilla luciferase HCV replicon reporter assay, genotype 2a JFH-1; format: cell-based; conditions: Hepatitis C virus
Outline: as §1

[5] = test system: NS5A chimeric genotype 2a JFH-1 replicon with genotype 2b MD2b-1 strain NS5A gene (M31 present); assay: Replicon assay, genotype 2b NS5A chimera; format: cell-based, HCV; conditions: Hepatitis C virus
Outline: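 Cells carrying the stable or transiently transfected (Huh-Lunet) dicistronic RLuc replicons received 3-fold serial compound dilutions from 10 mM DMSO stocks. After 72 h, cells were lysed and Renilla luciferase read. DMSO served as the no-inhibition control and ITMN-191 above 100×EC50 as the positive control; EC50 by non-linear regression.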

[6] = test system: NS5A chimeric genotype 1b Con1 replicon with genotype 3a S52 strain NS5A gene; assay: Replicon assay, genotype 3a NS5A chimera; format: cell-based, HCV; conditions: Hepatitis C virus
[7] = test system: NS5A chimeric genotype 1b Con1 replicon with genotype 4a ED43 strain NS5A gene; assay: Replicon assay, genotype 4a NS5A chimera; format: cell-based, HCV; conditions: Hepatitis C virus
[8] = test system: NS5A chimeric genotype 2a JFH-1 replicon with genotype 2a J6 strain NS5A gene (M31 present); assay: Replicon assay, genotype 2a J6 NS5A chimera; format: cell-based, HCV; conditions: Hepatitis C virus
Outline: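 72 h compound exposure (3-fold dilutions from 10 mM DMSO stocks) of replicon cells: stable dicistronic RLuc 1a H77, 1b Con1, 2a JFH-1 (NS5A L31); J6-NS5A chimera in JFH-1 (M31), transient in Huh-Lunet or stable. Renilla luciferase read-out, non-linear regression → EC50. DMSO negative control.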

[9] = read-out: 2a JFH (nM), genotype 2a JFH-1 replicon (L31 in NS5A), stable cells
[10] = read-out: 2a JFH, stable 2a JFH-1 Rluc replicon cells, L31 in NS5A, activity range
[11] = 2BS, read-out: 2b (s), stably replicating replicon cells (s), activity range
[12] = read-out: 2b (s) (nM), genotype 2b MD2b-1 NS5A chimeric replicon (M31), stably replicating replicon cells (s)
[13] = read-out: 3a (s) (nM), genotype 3a NS5A chimeric replicon, stable replicon cells (s)
[14] = read-out: 3a (s), (s), activity range
[15] = read-out: 4a (s) (nM), genotype 4a NS5A chimeric replicon, stable replicon cells (s)
[16] = read-out: 4a (s), (s), activity range
[17] = read-out: 2a J6 (t) (nM), genotype 2a J6 NS5A chimeric replicon (M31), transiently transfected (t) into Huh-Lunet cells
[18] = read-out: 2a J6 (t), transiently transfected (t) into Huh-Lunet cells, activity range

Row | SMILES | EC50 [1] | EC50 [2] | EC50 ([2]; activity range) | EC50 ([3]; read-out: 1a Q30R) | EC50 ([3]; read-out: 1a Q30R (nM)) | EC50 [4, 9] | EC50 [4, 10] | EC50 [5, 11] | EC50 [5, 12] | EC50 ([5]; read-out: 2b (t) (nM), genotype 2b MD2b-1 NS5A chimeric replicon (M31), transiently transfected (t)) | EC50 ([5]; read-out: 2b (t), transiently transfected (t) into Huh-Lunet cells, activity range) | EC50 [6, 13] | EC50 [6, 14] | EC50 [7, 15] | EC50 [7, 16] | EC50 [8, 17] | EC50 [8, 18] | EC50 ([8]; read-out: 2a J6 (s) (nM), genotype 2a J6 NS5A chimeric replicon (M31), stably replicating replicon cells (s)) | EC50 ([8]; read-out: 2a J6 (s), stably replicating replicon cells (s), activity range)
1 | CC[C@H]1CC[C@@H](c2nc3ccc4cc5c(cc4c3[nH]2)OCc2cc(-c3cnc([C@@H]4CC[C@H](C)N4C(=O)[C@@H](NC(=O)OC)C(C)C)[nH]3)ccc2-5)N1C(=O)[C@@H](NC(=O)OC)C1CCOCC1 [EO, methyl[(1 S)-2-[(2S,5S)-2-ethyl-5-(9-{2-[(2S,5S)-1-{(2S)-2 [(methoxycarbonyl)amino]-3-methylbutanoyl}-5-methylpyrrolidin-2-yl]-1H-imidazol-5-yl}-1,11-dihydroisochromeno[4′,3′:6,7]naphtho[1,2-d]imidazol-2-yl)pyrrolidin-1-yl]-2-oxo-1-(tetrahydro-2H-pyran-4-yl)ethyl]carbamate] | 0.04 nM | 0.024 nM | < 0.1 nM | < 0.1 nM | 0.052 nM | 0.017 nM | < 0.1 nM | < 0.1 nM | 0.091 nM | 0.038 nM | < 0.1 nM | 0.054 nM | < 0.1 nM | – | – | – | – | – | –
2 | COC(=O)N[C@H](C(=O)N1[C@@H](C)CC[C@H]1c1ncc(-c2ccc3c(c2)COc2cc4c(ccc5nc([C@@H]6CC[C@H](C)N6C(=O)[C@@H](NC(=O)OC)[C@@H](C)O)[nH]c54)cc2-3)[nH]1)C(C)C [FI, Methyl {(2S,3R)-3-hydroxy-1-[(2S,5S)-2-(9-{2-[(2S,5S)-1-{(2S)-2-[(methoxycarbonyl)amino]-3-methylbutanoyl}-5-methylpyrrolidin-2-yl]-1H-imidazol-5-yl}-1,11-dihydroisochromeno[4′,3′:6,7]naphtho[1,2-d]imidazol-2-yl)-5-methylpyrrolidin-1-yl]-1-oxobutan-2-yl}carbamate] | 0.022 nM | 0.01 nM | < 0.1 nM | 0.1 to 0.999 nM | 0.115 nM | 0.015 nM | < 0.1 nM | 0.1 to 0.999 nM | 0.152 nM | – | – | 0.04 nM | < 0.1 nM | 0.012 nM | < 0.1 nM | – | – | – | –
3 | COC(=O)N[C@H](C(=O)N1[C@@H](C)CC[C@H]1c1ncc(-c2ccc3c(c2)COc2cc4c(ccc5nc([C@@H]6CC[C@H](C)N6C(=O)[C@@H](NC(=O)OC)[C@@H](C)OC)[nH]c54)cc2-3)[nH]1)C1CCOCC1 [FR, Methyl [(1 S)-2-[(2S,5S)-2-(5-{2-[(2S,5S)-1-{(2S,3R)-3-methoxy-2-[(methoxycarbonyl)amino]butanoyl}-5-methylpyrrolidin-2-yl]-1,11-dihydroisochromeno[4′,3′:6,7]naphtho[1,2-d]imidazol-9-yl}-1H-imidazol-2-yl)-5-methylpyrrolidin-1-yl]-2-oxo-1-(tetrahydro-2H-pyran-4-yl)ethyl]carbamate] | 0.05 nM | 0.026 nM | < 0.1 nM | < 0.1 nM | 0.071 nM | 0.015 nM | < 0.1 nM | < 0.1 nM | 0.054 nM | – | – | 0.031 nM | < 0.1 nM | – | – | – | – | – | –
4 | CC[C@H]1CC[C@@H](c2ncc(-c3ccc4c(c3)COc3cc5c(ccc6nc([C@@H]7C[C@@H]8CCC[C@@H]8N7C(=O)[C@@H](NC(=O)OC)C7CCOCC7)[nH]c65)cc3-4)[nH]2)N1C(=O)[C@@H](NC(=O)OC)C(C)C [IQ] | 0.019 nM | 0.018 nM | < 0.1 nM | – | – | 0.023 nM | < 0.1 nM | < 0.1 nM | 0.069 nM | – | – | 0.045 nM | < 0.1 nM | 0.021 nM | < 0.1 nM | 0.046 nM | < 0.1 nM | – | –
5 | CC[C@H]1CC[C@@H](c2nc3ccc4cc5c(cc4c3[nH]2)OCc2cc(-c3cnc([C@@H]4CC[C@H](C)N4C(=O)[C@@H](NC(=O)OC)C4CCOCC4)[nH]3)ccc2-5)N1C(=O)[C@@H](NC(=O)OC)C(C)C [IR] | 0.021 nM | 0.018 nM | < 0.1 nM | – | – | 0.018 nM | < 0.1 nM | < 0.1 nM | 0.081 nM | – | – | 0.091 nM | < 0.1 nM | 0.017 nM | < 0.1 nM | 0.084 nM | < 0.1 nM | – | –
6 | CC[C@H]1CC[C@@H](c2nc3ccc4cc5c(cc4c3[nH]2)OCc2cc(-c3cnc([C@@H]4C[C@H](C)CN4C(=O)[C@@H](NC(=O)OC)C(C)C)[nH]3)ccc2-5)N1C(=O)[C@@H](NC(=O)OC)C1CCOCC1 [IS] | 0.021 nM | 0.017 nM | < 0.1 nM | – | – | 0.018 nM | < 0.1 nM | < 0.1 nM | 0.083 nM | – | – | 0.174 nM | 0.1 to 0.999 nM | 0.015 nM | < 0.1 nM | 0.052 nM | < 0.1 nM | – | –
7 | CCC[C@H]1CC[C@@H](c2nc3ccc4cc5c(cc4c3[nH]2)OCc2cc(-c3cnc([C@@H]4CC[C@H](C)N4C(=O)[C@@H](NC(=O)OC)C(C)C)[nH]3)ccc2-5)N1C(=O)[C@@H](NC(=O)OC)C1CCOCC1 [IV] | 0.053 nM | 0.045 nM | < 0.1 nM | – | – | 0.055 nM | < 0.1 nM | 0.1 to 0.999 nM | 0.426 nM | – | – | 0.236 nM | 0.1 to 0.999 nM | 0.018 nM | < 0.1 nM | – | – | 0.068 nM | < 0.1 nM
8 | COC(=O)N[C@H](C(=O)N1[C@H](c2ncc(-c3ccc4c(c3)COc3cc5c(ccc6nc([C@@H]7CC[C@H](C)N7C(=O)[C@@H](NC(=O)OC)C7CCOCC7)[nH]c65)cc3-4)[nH]2)C[C@@H]2CCC[C@@H]21)C(C)C [IY] | 0.03 nM | 0.023 nM | < 0.1 nM | – | – | 0.012 nM | < 0.1 nM | < 0.1 nM | 0.069 nM | – | – | 0.045 nM | < 0.1 nM | 0.019 nM | < 0.1 nM | 0.047 nM | < 0.1 nM | – | –
